Data on one molecule can be found in patent US6316436A, “Inhibitors of prenyl-protein transferase” (Merck & Co., Inc., priority 1999, dated 2001).

The test has as its target T1, human FPTase (Homo sapiens, UniProt P49354+P49356).
T1 construct: made in house
Kind of test: In vitro inhibition of Ras farnesyl transferase (FPTase inhibition assay). In kind it is biochemical. Conditions: 30° C.; 650 nM Ras-CVLS, 100 nM farnesyl diphosphate; recombinant FPTase; read-out: IC50 for inhibitory activity against human FPTase. As to the method:
In Vitro Inhibition of Ras Farnesyl Transferase
Isoprenyl-protein transferase activity assays are carried out at 30° C. unless noted otherwise. A typical reaction contains (in a final volume of 50 μL): [^3 H]farnesyl diphosphate, Ras protein, 50 mM HEPES, pH 7.5, 5 mM MgCl2, 5 mM dithiothreitol, 10 μM ZnCl2, 0.1% polyethyleneglycol (PEG) (15,000-20,000 mw) and isoprenyl-protein transferase. The FPTase employed in the assay is prepared by recombinant expression as described in Omer, C. A., Kral, A. M., Diehl, R. E., Prendergast, G. C., Powers, S., Allen, C. M., Gibbs, J. B. and Kohl, N. E. (1993) Biochemistry 32:5167-5176. After thermally pre-equilibrating the assay mixture in the absence of enzyme, reactions are initiated by the addition of isoprenyl-protein transferase and stopped at timed intervals (typically 15 min) by the addition of 1 M HCl in ethanol (1 mL). The quenched reactions are allowed to stand for 15 m (to complete the precipitation process). After adding 2 mL of 100% ethanol, the reactions are vacuum-filtered through Whatman GF/C filters. Filters are washed four times with 2 mL aliquots of 100% ethanol, mixed with scintillation fluid (10 mL) and then counted in a Beckman LS3801 scintillation counter. […]

As a reminder, the IC50 is the concentration that inhibits the measured activity by half.

With `CCC12CCCCN(C1)C(=O)CCc1cncn1Cc1ccc(C#N)c(c1)Oc1cccc2c1` (racemic) [Example 1, (±) 5H-17-Ethyl-17,22-methano-18,19,20,21,23,24-hexahydro-23-oxo-6,10: 12,16-dimetheno-25H-imidazo[3,4-h]-[1,11,16]oxadiazacyclodocosane-9-carbonitrile], the IC50 is at most 10 µM.
